In one assay the test system is Aβ total. As to the kind of experiment: Aβ total levels in H4 neuroglioma cells stably expressing human APP695 (MSD electrochemiluminescence). Type of assay: cell-based. As to conditions: selectivity ratio vs. Aβtotal. On the procedure:
Cells were plated out to near confluency. The compounds to be tested were received as 10 mM stocks in 100% DMSO. A dilution series was initially generated in 100% DMSO and then diluted 200-fold in cell culture media such that the tested concentration range was 30 μM to 0.1 nM and the final DMSO concentration was 0.5%. The diluted compounds were incubated with the cells for 22 hours in an incubator at 37° C. and 5% CO2. Aβ42 levels were measured post-incubation from the supernatant of the cells using an Aβ42 specific electrochemiluminescence assay provided by Meso Scale Discovery (Catalog #L21CA-1). The measurement of Aβ42 levels were performed according to the manufacturer's protocol.
Aβ total levels were likewise determined using a specific electrochemiluminescence assay provided by Meso Scale Discovery (Catalog #L21ZA-1) according to the manufacturer's protocol.

Another assay deals with FGFR1 (Homo sapiens, UniProt P11362). As to the kind of experiment: Z'-LYTE SelectScreen biochemical kinase assay FGFR1. The text has this:
(§1) Thermo Fisher Scientific SelectScreen™ Biochemical Kinase Profiling Service Z′-LYTE™ Screening Protocol and Assay Conditions Assay Theory
(§2) The […] biochemical assay employs a fluorescence-based, coupled-enzyme format and is based on the differential sensitivity of phosphorylated and non-phosphorylated peptides to proteolytic cleavage. The peptide substrate is labeled with two fluorophores—one at each end—that make up a FRET pair. In the primary reaction, the kinase transfers the gamma-phosphate of ATP to a single tyrosine, serine or threonine residue in a synthetic FRET-peptide. In the secondary reaction, a site-specific protease recognizes and cleaves non-phosphorylated FRET-peptides. Phosphorylation of FRET-peptides suppresses cleavage by the Development Reagent. Cleavage disrupts FRET between the donor (i.e., coumarin) and acceptor (i.e., fluorescein) fluorophores on the FRET-peptide, whereas uncleaved, phosphorylated FRET-peptides maintain FRET. A ratiometric method, which calculates the ratio (Emission Ratio=Coumarin emission (445 nm)/Fluorescein emission (520 nm)) of donor emission to acceptor emission after excitation of the donor fluorophore at 400 nm, is used to quantitate reaction progress, as shown in the equation below. A significant benefit of this ratiometric method for quantitating reaction progress is the elimination of well-to-well variations in FRET-peptide concentration and signal intensities. As a result, the assay yields very high Z′-factor values (>0.7) at a low percent phosphorylation. Both cleaved and uncleaved FRET-peptides contribute to the fluorescence signals and therefore to the Emission Ratio. The extent of phosphorylation of the FRET-peptide can be calculated from the Emission Ratio. The Emission Ratio will remain low if the FRET-peptide is phosphorylated (i.e., no kinase inhibition) and will be high if the FRET-peptide is non-phosphorylated (i.e., kinase inhibition).
(§3) The Test Compounds are screened in 1% DMSO (final) in the well. For 10 point titrations, 3-fold serial dilutions are conducted from the starting concentration of the customer's choosing.
(§4) All Peptide/Kinase Mixtures are diluted to a 2× working concentration in the appropriate Kinase Buffer (see section Kinase Specific Assay Conditions for a complete description).
(§5) All ATP Solutions are diluted to a 4× working concentration in Kinase Buffer (50 mM HEPES pH 7.5, 0.01% BRIJ-35, 10 mM MgCl2, 1 mM EGTA). ATP Km apparent is previously determined using a Z″-LYTE assay.
(§6) The Development Reagent is diluted in Development Buffer (see section Kinase-Specific Assay Conditions—Direct and Cascade for a complete description).
(§7) Bar-coded Corning, low volume NBS, black 384-well plate (Corning Cat. #4514) • 1. 100 nL—100× Test Compound in 100% DMSO • 2. 2.4 μL—Kinase buffer • 3. 5 μL—2× Peptide/Kinase Mixture • 4. 2.5 μL—4×ATP Solution • 5. 30—second plate shake • 6. 60—minute Kinase Reaction incubation at room temperature • 7. 5 μL—Development Reagent Solution • 8. 30—second plate shake • 9. 60—minute Development Reaction incubation at room temperature • 10. Read on fluorescence plate reader and analyze the data Z′-LYTE Assay Controls
(§8) SelectScreen Kinase Profiling Service uses XLfit from IDBS. The dose response curve is curve fit to model number 205 (sigmoidal dose-response model).
The 2×FGFR1/Tyr 04 mixture is prepared in 50 mM HEPES pH 7.5, 0.01% BRIJ-35, 10 mM MgCl2, 4 mM MnCl2, 1 mM EGTA, 2 mM DTT. The final 10 μL Kinase Reaction consists of 0.44-2.45 ng FGFR1 and 2 μM Tyr 04 in 50 mM HEPES pH 7.5, 0.01% BRIJ-35, 10 mM MgCl2, 2 mM MnCl2, 1 mM EGTA, 1 mM DTT. After the 1 hour Kinase Reaction incubation, 5 μL of a 1:64 dilution of Development Reagent B is added.

Another assay deals with CDK5/p35 (Homo sapiens, UniProt Q00535). In words: Z'-LYTE SelectScreen biochemical kinase assay CDK5/p35.
Sequence of CDK5/p35 (Q00535 whole entry): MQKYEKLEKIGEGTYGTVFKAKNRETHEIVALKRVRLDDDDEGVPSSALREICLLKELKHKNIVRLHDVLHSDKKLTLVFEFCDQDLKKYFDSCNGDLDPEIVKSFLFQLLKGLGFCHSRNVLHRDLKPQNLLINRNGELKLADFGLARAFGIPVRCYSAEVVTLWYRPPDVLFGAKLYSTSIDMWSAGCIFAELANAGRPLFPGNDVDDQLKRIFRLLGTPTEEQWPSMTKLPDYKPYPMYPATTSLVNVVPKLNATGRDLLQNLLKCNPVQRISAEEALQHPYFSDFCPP
Sequence of CDK5/p35 (Q15078 whole entry partner): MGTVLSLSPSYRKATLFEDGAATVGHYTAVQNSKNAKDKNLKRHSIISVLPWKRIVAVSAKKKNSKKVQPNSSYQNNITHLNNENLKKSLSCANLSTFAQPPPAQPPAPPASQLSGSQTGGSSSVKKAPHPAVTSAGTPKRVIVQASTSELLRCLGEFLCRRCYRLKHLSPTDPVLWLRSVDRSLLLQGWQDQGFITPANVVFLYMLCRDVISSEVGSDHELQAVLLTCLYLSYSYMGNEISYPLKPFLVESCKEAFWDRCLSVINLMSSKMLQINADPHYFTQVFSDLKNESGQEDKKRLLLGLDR
Excerpt: as §1, §2, §3, §4, §5, §6, §7, §8
The 2×CDK5/p35/Ser/Thr 12 mixture is prepared in 50 mM HEPES pH 7.5, 0.01% BRIJ-35, 10 mM MgCl2, 1 mM EGTA. The final 10 μL Kinase Reaction consists of 0.14-1.3 ng CDK5/p35 and 2 μM Ser/Thr 12 in 50 mM HEPES pH 7.5, 0.01% BRIJ-35, 10 mM MgCl2, 1 mM EGTA. After the 1 hour Kinase Reaction incubation, 5 μL of a 1:4096 dilution of Development Reagent A is added.

A further assay has as its target ABL1 (Homo sapiens, UniProt P00519). As to the kind of experiment: Z'-LYTE SelectScreen biochemical kinase assay ABL1.
Excerpt: as §1, §2, §3, §4, §5, §6, §7, §8
The 2×ABL1/Tyr 02 mixture is prepared in 50 mM HEPES pH 7.5, 0.01% BRIJ-35, 10 mM MgCl2, 1 mM EGTA. The final 10 μL Kinase Reaction consists of 0.29-1.26 ng ABL1 and 2 μM Tyr 02 in 50 mM HEPES pH 7.5, 0.01% BRIJ-35, 10 mM MgCl2, 1 mM EGTA. After the 1 hour Kinase Reaction incubation, 5 μL of a 1:128 dilution of Development Reagent A is added.

[1] abbreviates: 10 μmolar compound concentration, ATP at Km app, read-out: FGFR1 inhibition.
Setting [2] is: read-out: % Inhibition mean FGFR1.
Where [3] appears, read: 10 μmolar compound concentration, ATP at Km app, read-out: CDK5/p35 inhibition.
[4] abbreviates: read-out: % Inhibition mean CDK5/p35.
[5] abbreviates: 10 μmolar compound concentration, ATP at Km app, read-out: ABL1 inhibition.
Setting [6] is: read-out: % Inhibition mean ABL1.

The structures appear in SMILES notation. Where two headings read alike, the source gives them in different places.

Sequence of FGFR1 (P11362 22-822): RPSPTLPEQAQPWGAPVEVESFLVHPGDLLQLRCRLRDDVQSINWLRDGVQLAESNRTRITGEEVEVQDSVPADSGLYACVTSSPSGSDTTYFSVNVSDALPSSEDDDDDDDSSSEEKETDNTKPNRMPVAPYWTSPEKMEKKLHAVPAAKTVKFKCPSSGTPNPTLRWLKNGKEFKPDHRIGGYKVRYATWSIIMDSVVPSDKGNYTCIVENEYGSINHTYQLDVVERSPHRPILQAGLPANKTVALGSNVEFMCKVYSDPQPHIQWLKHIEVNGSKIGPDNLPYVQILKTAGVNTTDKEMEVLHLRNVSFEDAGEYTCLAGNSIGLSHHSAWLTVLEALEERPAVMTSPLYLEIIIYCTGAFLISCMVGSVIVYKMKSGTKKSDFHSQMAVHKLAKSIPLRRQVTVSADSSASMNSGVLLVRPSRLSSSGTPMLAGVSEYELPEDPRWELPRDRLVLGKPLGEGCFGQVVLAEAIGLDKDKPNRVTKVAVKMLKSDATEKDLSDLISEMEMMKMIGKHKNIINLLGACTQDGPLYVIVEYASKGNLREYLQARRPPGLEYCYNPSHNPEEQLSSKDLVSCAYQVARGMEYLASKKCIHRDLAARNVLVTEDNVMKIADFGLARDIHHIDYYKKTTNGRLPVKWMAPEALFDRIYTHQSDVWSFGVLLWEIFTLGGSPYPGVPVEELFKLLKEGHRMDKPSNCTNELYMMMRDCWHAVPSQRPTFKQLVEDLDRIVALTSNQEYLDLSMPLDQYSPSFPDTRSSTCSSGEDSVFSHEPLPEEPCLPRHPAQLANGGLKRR
Sequence of ABL1 (P00519 whole entry): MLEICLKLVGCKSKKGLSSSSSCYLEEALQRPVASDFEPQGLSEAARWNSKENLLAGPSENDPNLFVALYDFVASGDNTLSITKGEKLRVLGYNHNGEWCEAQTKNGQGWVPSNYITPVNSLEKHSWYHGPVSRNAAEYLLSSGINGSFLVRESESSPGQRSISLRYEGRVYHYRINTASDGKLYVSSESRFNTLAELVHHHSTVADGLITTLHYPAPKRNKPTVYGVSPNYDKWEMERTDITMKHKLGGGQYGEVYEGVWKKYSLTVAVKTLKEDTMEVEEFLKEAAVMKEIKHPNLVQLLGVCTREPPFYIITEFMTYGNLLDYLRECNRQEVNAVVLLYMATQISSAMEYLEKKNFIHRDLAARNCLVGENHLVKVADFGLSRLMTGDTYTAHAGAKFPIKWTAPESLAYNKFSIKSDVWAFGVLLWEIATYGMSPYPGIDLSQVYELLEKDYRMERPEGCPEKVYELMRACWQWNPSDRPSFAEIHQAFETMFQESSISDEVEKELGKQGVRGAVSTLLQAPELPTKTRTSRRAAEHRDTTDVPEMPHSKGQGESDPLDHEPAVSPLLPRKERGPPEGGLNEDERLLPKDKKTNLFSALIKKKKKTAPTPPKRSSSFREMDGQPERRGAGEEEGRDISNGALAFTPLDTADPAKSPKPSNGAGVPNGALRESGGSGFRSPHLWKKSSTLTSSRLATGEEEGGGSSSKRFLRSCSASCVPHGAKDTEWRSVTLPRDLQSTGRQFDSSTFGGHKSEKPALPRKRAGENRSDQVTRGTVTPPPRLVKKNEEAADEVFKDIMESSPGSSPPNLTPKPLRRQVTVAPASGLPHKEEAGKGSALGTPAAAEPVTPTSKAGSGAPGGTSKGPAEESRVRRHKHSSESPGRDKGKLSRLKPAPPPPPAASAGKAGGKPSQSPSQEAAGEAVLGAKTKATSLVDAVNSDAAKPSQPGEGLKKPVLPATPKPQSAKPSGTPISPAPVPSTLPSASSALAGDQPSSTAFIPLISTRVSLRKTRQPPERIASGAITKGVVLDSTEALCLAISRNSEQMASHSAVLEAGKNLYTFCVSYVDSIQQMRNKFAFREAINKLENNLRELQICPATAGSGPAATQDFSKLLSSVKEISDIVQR

As for `Cc1cc(F)ccc1-c1cccn2nc(Nc3ccc4c(cnn4C)c3)nc12` [Example 9, [8-(4-fluoro-2-methyl-phenyl)-[1,2,4]triazolo[1,5-a]pyridine-2-yl]-(1-methyl-1H-indazol-5-yl)-amine], the “Ratio AβTotal IC50/Aβ42 IC50” value in the assay with Aβ total (Table 4a) is on record as 3. The inhibition at 10 µM at FGFR1 (setting [1]) is below 40%; on FGFR1 (setting [2]) it was 35%; on CDK5/p35 (setting [3]), 40 to 80%; on CDK5/p35 (setting [4]), 42%; on ABL1 (setting [5]) it was 40 to 80%; at ABL1 (setting [6]), 63%.
Regarding `CC1(C)NC(=O)c2ccc(Nc3nc4c(-c5cccc(F)c5)cccn4n3)cc21` [Cpd. 302 in WO09155551, reference compound], the “Ratio AβTotal IC50/Aβ42 IC50” value with Aβ total (prior art compounds, Table 4b) amounted to 1. For the same molecule, the inhibition at 10 µM on FGFR1 (setting [1]) was above 80%; at FGFR1 (read-out: % Inhibition mean), 97%; on CDK5/p35 (setting [3]) it was above 80%; on CDK5/p35 (read-out: % Inhibition mean), 88%; at ABL1 (setting [5]), above 80%; at ABL1 (read-out: % Inhibition mean) it was 104%.
Take `CCCCn1ncc2c1CCC(Nc1nc3c(-c4ccc(F)cc4C)cccn3n1)C2` (stereo not shown) [Example 46, [8-(4-fluoro-2-methyl-phenyl)-[1,2,4]triazolo[1,5-a]pyridine-2-yl]-(1-butyl-4,5,6,7-tetrahydro-1H-indazol-5-yl)-amine]: the “Ratio AβTotal IC50/Aβ42 IC50” value in the assay on Aβ total (Table 4a) turned out to be 4. Moreover, the inhibition at 10 µM was below 40% on FGFR1 (setting [1]); 21% at FGFR1 (setting [2]); below 40% on CDK5/p35 (setting [3]); 34% at CDK5/p35 (setting [4]); below 40% on ABL1 (setting [5]); 10% on ABL1 (setting [6]).
With `Cc1cc(F)ccc1-c1cccn2nc(NC3CCc4c(cnn4C(C)C)C3)nc12` (stereo not shown) [Example 44, [8-(4-fluoro-2-methyl-phenyl)-[1,2,4]triazolo[1,5-a]pyridine-2-yl]-(1-isopropyl-4,5,6,7-tetrahydro-1H-indazol-5-yl)-amine], in the assay with Aβ total (Table 4a), the “Ratio AβTotal IC50/Aβ42 IC50” value was found to be 64. Besides, the inhibition at 10 µM was below 40% at FGFR1 (setting [1]); 20% on FGFR1 (setting [2]); below 40% on CDK5/p35 (setting [3]); 25% on CDK5/p35 (setting [4]); below 40% on ABL1 (setting [5]); 13% at ABL1 (setting [6]).
As to `CCn1ncc2c1CC[C@H](Nc1nc3c(-c4ccc(F)c(Cl)c4)cccn3n1)C2` [Example S-61, (S)-[8-(3-Chloro-4-fluoro-phenyl)-[1,2,4]triazolo[1,5-a]pyridine-2-yl]-(1-ethyl-4,5,6,7-tetrahydro-1H-indazol-5-yl)-amine], in the assay on Aβ total (Table 4a), the “Ratio AβTotal IC50/Aβ42 IC50” value was 42. For the same molecule, the inhibition at 10 µM was below 40% at FGFR1 (setting [1]); 13% at FGFR1 (setting [2]); below 40% on CDK5/p35 (setting [3]); 10% at CDK5/p35 (setting [4]); below 40% at ABL1 (setting [5]); 13% on ABL1 (setting [6]).
As to `CCn1nnc2c1CCC(Nc1nc3c(-c4ccc(F)cc4C)cccn3n1)C2` (stereo not shown) [Example 51, (1-Ethyl-4,5,6,7-tetrahydro-1H-benzotriazol-5-yl)-[8-(4-fluoro-2-methyl-phenyl)-[1,2,4]triazolo[1,5-a]pyridine-2-yl]-amine], the “Ratio AβTotal IC50/Aβ42 IC50” value in the assay on Aβ total (Table 4a) came to 2. For the same molecule, the inhibition at 10 µM on FGFR1 (setting [1]) was below 40%; on FGFR1 (setting [2]), 5%; at CDK5/p35 (setting [3]), below 40%; at CDK5/p35 (setting [4]), 23%; on ABL1 (setting [5]) it was below 40%; on ABL1 (setting [6]), 6%.
As for `CCn1ncc2c1CCC(Nc1nc3c(-c4cccnc4OC)cccn3n1)C2` (stereo not shown) [Example 69, (1-Ethyl-4,5,6,7-tetrahydro-1H-indazol-5-yl)-[8-(2-methoxy-pyridin-3-yl)-[1,2,4]triazolo[1,5-a]pyridine-2-yl]-amine], the “Ratio AβTotal IC50/Aβ42 IC50” value with Aβ total (Table 4a) is recorded as 60. Also, the inhibition at 10 µM on FGFR1 (setting [1]) was below 40%; on FGFR1 (setting [2]) it was 20%; at CDK5/p35 (setting [3]), below 40%; on CDK5/p35 (setting [4]), 28%; at ABL1 (setting [5]), below 40%; at ABL1 (setting [6]) it was 13%.
`CCn1nc(Cl)c2c1CCC(Nc1nc3c(-c4ccc(F)cc4C)cccn3n1)C2` (stereo not shown) [Example 48, (3-Chloro-1-ethyl-4,5,6,7-tetrahydro-1H-indazol-5-yl)-[8-(4-fluoro-2-methyl-phenyl)-[1,2,4]triazolo[1,5-a]pyridine-2-yl]-amine]: the “Ratio AβTotal IC50/Aβ42 IC50” value in the assay with Aβ total (Table 4a) came out at 22. Moreover, the inhibition at 10 µM on FGFR1 (setting [1]) is below 40%; at FGFR1 (setting [2]), 18%; at CDK5/p35 (setting [3]), below 40%; on CDK5/p35 (setting [4]), 38%; on ABL1 (setting [5]), below 40%; at ABL1 (setting [6]) it was 13%.
Turning to `CCn1ncc2c1CCC(Nc1nc3c(-c4cccc(Cl)c4)cccn3n1)C2` (stereo not shown) [Example 59, [8-(3-Chloro-phenyl)-[1,2,4]triazolo[1,5-a]pyridine-2-yl]-(1-ethyl-4,5,6,7-tetrahydro-1H-indazol-5-yl)-amine], the “Ratio AβTotal IC50/Aβ42 IC50” value in the assay with Aβ total (Table 4a) was 49. The inhibition at 10 µM on FGFR1 (setting [1]) was below 40%; on FGFR1 (setting [2]), 22%; on CDK5/p35 (setting [3]), below 40%; on CDK5/p35 (setting [4]), 28%; on ABL1 (setting [5]), below 40%; on ABL1 (setting [6]), 19%.
As to `CCn1ncc2c1CCC(Nc1nc3c(-c4cccnc4)cccn3n1)C2` (stereo not shown) [Example 63, (1-Ethyl-4,5,6,7-tetrahydro-1H-indazol-5-yl)-(8-pyridin-3-yl-[1,2,4]triazolo[1,5-a]pyridine-2-yl)-amine], the “Ratio AβTotal IC50/Aβ42 IC50” value in the assay with Aβ total (Table 4a) is on record as 85. Also, the inhibition at 10 µM at FGFR1 (setting [1]) was below 40%; on FGFR1 (setting [2]) it was 18%; at CDK5/p35 (setting [3]), 40 to 80%; on CDK5/p35 (setting [4]) it was 47%; on ABL1 (setting [5]), below 40%; on ABL1 (setting [6]) it was 15%.

Values taken from US11339161B2, “Triazolo pyridines as modulators of gamma-secretase” (Boehringer Ingelheim International GmbH, priority 2017, dated 2022).
